ChEMBL document CHEMBL1201862, “PubChem BioAssay data set” (2004)
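Interpolation was linear, between the two tested concentrations surrounding the appropriate level; five concentrations were tested over 48 hours in 96-well plates. GI50 marks 50% less growth.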 The source made the active and inactive calls. Cut-off read from the data, not from the text of the source: active = GI50 up to about 1.1 µM and inactive = higher.

Tests used:
Assay in all cases: DTP human tumour cell line panel, 48 h
M14 = tested on: M14
TK-10 = tested on: TK-10
DU-145 = tested on: DU-145
MDA-MB-435 = tested on: MDA-MB-435
U-251 = tested on: U-251
HOP-92 = tested on: HOP-92
NCI/ADR-RES = tested on: NCI/ADR-RES
T47D = tested on: T47D
UACC-62 = tested on: UACC-62
OVCAR-5 = tested on: OVCAR-5
HCC 2998 = tested on: HCC 2998
IGROV-1 = tested on: IGROV-1
SNB-19 = tested on: SNB-19
A549 = tested on: A549
SF-539 = tested on: SF-539
MOLT-4 = tested on: MOLT-4
A498 = tested on: A498
HCT-116 = tested on: HCT-116

Measured: GI50

O=C(/C=C/c1ccc(Cl)c(Cl)c1)Oc1ccc(/C=C2\CCCCC2=O)cc1
inactive: M14 > 100 µM | TK-10 > 100 µM | DU-145 > 100 µM | MDA-MB-435 78.2 µM | U-251 > 100 µM | HOP-92 > 100 µM | NCI/ADR-RES > 100 µM | T47D > 100 µM | UACC-62 > 100 µM | OVCAR-5 > 100 µM | HCC 2998 > 100 µM | IGROV-1 > 100 µM | SNB-19 > 100 µM | A549 > 100 µM | SF-539 > 100 µM | MOLT-4 24.6 µM | A498 > 100 µM | HCT-116 > 100 µM

CCCCCC(=O)Nc1[nH]nnc1C#N
inactive: M14 > 100 µM | TK-10 > 100 µM | DU-145 > 100 µM | MDA-MB-435 > 100 µM | U-251 > 100 µM | HOP-92 > 100 µM | NCI/ADR-RES > 100 µM | T47D > 100 µM | UACC-62 > 100 µM | OVCAR-5 > 100 µM | HCC 2998 > 100 µM | IGROV-1 > 100 µM | SNB-19 > 100 µM | A549 > 100 µM | SF-539 > 100 µM | MOLT-4 > 100 µM | A498 > 100 µM | HCT-116 > 100 µM

COC(=O)/C=C1/OC(c2ccc(C)cc2C)=CC1=O
inactive: M14 15.6 µM | TK-10 17.5 µM | DU-145 15.5 µM | MDA-MB-435 15.7 µM | U-251 17.4 µM | HOP-92 16.6 µM | NCI/ADR-RES 19.5 µM | T47D 20.1 µM | UACC-62 10.6 µM | OVCAR-5 15.7 µM | HCC 2998 16.7 µM | IGROV-1 4.47 µM | SNB-19 > 10 µM | SF-539 17.2 µM | MOLT-4 3.55 µM | A498 20.7 µM | HCT-116 11.5 µM

Cn1c(-c2ccc(C=O)o2)ccc1-c1ccc(C=O)o1
inactive: M14 31 µM | TK-10 > 100 µM | DU-145 49.4 µM | MDA-MB-435 38.6 µM | U-251 40.7 µM | HOP-92 36.6 µM | NCI/ADR-RES 35.7 µM | T47D 26.1 µM | UACC-62 74.1 µM | OVCAR-5 > 100 µM | HCC 2998 > 100 µM | IGROV-1 36.9 µM | SNB-19 54.8 µM | A549 > 100 µM | SF-539 34.5 µM | MOLT-4 24.8 µM | A498 > 100 µM | HCT-116 18.4 µM

C[C@@H]1O[C@@H]2OCC[C@@H]2C2=C1C(=O)c1ccccc1C2=O
inactive: M14 3.98 µM | TK-10 19.7 µM | DU-145 9.1 µM | MDA-MB-435 1.94 µM | U-251 7.53 µM | HOP-92 4.38 µM | NCI/ADR-RES 2.02 µM | T47D 5.12 µM | UACC-62 4.35 µM | OVCAR-5 1.81 µM | HCC 2998 17.9 µM | IGROV-1 1.98 µM | SNB-19 18.7 µM | A549 19 µM | SF-539 8.85 µM | MOLT-4 7.74 µM | A498 18 µM

O=C(NO)c1ccc(C(=O)NO)cc1
inactive: M14 97.9 µM | TK-10 76 µM | DU-145 34.5 µM | MDA-MB-435 48 µM | U-251 1.25 µM | HOP-92 82.2 µM | NCI/ADR-RES 3.21 µM | T47D 30.3 µM | UACC-62 > 100 µM | OVCAR-5 > 100 µM | HCC 2998 9.86 µM | IGROV-1 > 100 µM | SNB-19 > 100 µM | A549 > 100 µM | SF-539 > 100 µM | MOLT-4 24.9 µM | A498 > 100 µM | HCT-116 56.1 µM

COC1(OC)N=C(N)C2(C#N)C(C)=C3NCN(C)N=C3C12C#N (stereo not given)
inactive: M14 > 100 µM | TK-10 > 100 µM | DU-145 > 100 µM | MDA-MB-435 > 100 µM | U-251 > 100 µM | HOP-92 > 100 µM | NCI/ADR-RES > 100 µM | T47D > 100 µM | UACC-62 > 100 µM | OVCAR-5 > 100 µM | HCC 2998 > 100 µM | IGROV-1 > 100 µM | SNB-19 > 100 µM | A549 > 100 µM | SF-539 > 100 µM | A498 > 100 µM | HCT-116 > 100 µM

CCOC(=O)c1cc2nc3ccccc3c(=O)n2c2ccccc12
inactive: M14 > 10 µM | TK-10 > 10 µM | DU-145 > 10 µM | MDA-MB-435 > 10 µM | U-251 > 10 µM | HOP-92 > 10 µM | NCI/ADR-RES > 10 µM | T47D > 10 µM | UACC-62 > 10 µM | OVCAR-5 > 10 µM | HCC 2998 > 10 µM | IGROV-1 > 10 µM | SNB-19 > 10 µM | A549 > 10 µM | SF-539 > 10 µM | A498 > 10 µM | HCT-116 > 10 µM

COc1ccc2cc(C(=O)NCCc3ccccc3)ccc2c1OC
inactive: M14 > 100 µM | DU-145 > 100 µM | MDA-MB-435 > 100 µM | U-251 33 µM | HOP-92 49.1 µM | NCI/ADR-RES 84.3 µM | T47D 26.5 µM | UACC-62 > 100 µM | OVCAR-5 > 100 µM | HCC 2998 34.8 µM | IGROV-1 > 100 µM | SNB-19 68.1 µM | A549 > 100 µM | SF-539 32.2 µM | MOLT-4 > 100 µM | A498 37.5 µM | HCT-116 96.6 µM

COc1ccc(CNc2ccn(C3OC(CO)C(O)C3O)c(=O)n2)cc1 (stereo not given)
inactive: M14 50.5 µM | TK-10 > 100 µM | DU-145 > 100 µM | MDA-MB-435 44.8 µM | U-251 > 100 µM | HOP-92 47.1 µM | NCI/ADR-RES > 100 µM | T47D 25.4 µM | UACC-62 74.5 µM | OVCAR-5 > 100 µM | HCC 2998 48.8 µM | IGROV-1 > 100 µM | SNB-19 > 100 µM | A549 > 100 µM | SF-539 > 100 µM | MOLT-4 45.1 µM | A498 > 100 µM | HCT-116 55.5 µM

CC(=O)Nc1nc(C)c(S(=O)(=O)NC(=O)N2c3ccccc3CCc3ccccc32)s1
inactive: M14 > 100 µM | TK-10 > 100 µM | DU-145 > 100 µM | MDA-MB-435 > 100 µM | U-251 > 100 µM | HOP-92 > 100 µM | NCI/ADR-RES > 100 µM | T47D > 100 µM | UACC-62 > 100 µM | OVCAR-5 > 100 µM | HCC 2998 > 100 µM | IGROV-1 > 100 µM | SNB-19 29.4 µM | A549 > 100 µM | SF-539 > 100 µM | MOLT-4 89.5 µM | A498 > 100 µM | HCT-116 > 100 µM

C#CCOC(=O)c1ccc(OC(C)=O)cc1
inactive: M14 > 100 µM | TK-10 > 100 µM | DU-145 > 100 µM | MDA-MB-435 > 100 µM | U-251 > 100 µM | HOP-92 > 100 µM | NCI/ADR-RES > 100 µM | T47D > 100 µM | UACC-62 > 100 µM | OVCAR-5 > 100 µM | HCC 2998 > 100 µM | IGROV-1 > 100 µM | SNB-19 > 100 µM | SF-539 > 100 µM | MOLT-4 > 100 µM | A498 > 100 µM | HCT-116 > 100 µM

COc1ccc2c(c1)CCN=C2Cc1ccccc1CCCl
inactive: M14 19.1 µM | TK-10 53.2 µM | DU-145 50.5 µM | MDA-MB-435 17.1 µM | U-251 33.1 µM | HOP-92 23.7 µM | NCI/ADR-RES 19.1 µM | T47D 17.7 µM | UACC-62 22.5 µM | OVCAR-5 40.5 µM | HCC 2998 17.1 µM | IGROV-1 25.8 µM | SNB-19 25.8 µM | A549 28.6 µM | SF-539 20.5 µM | MOLT-4 23.7 µM | A498 51.9 µM | HCT-116 11.9 µM

C/C(Sc1ccccc1)=C1/CCCN(Cc2ccccc2)C1
inactive: M14 11.9 µM | TK-10 18.6 µM | DU-145 47.5 µM | MDA-MB-435 25.1 µM | U-251 20.5 µM | HOP-92 17.5 µM | NCI/ADR-RES 24.9 µM | T47D 13.3 µM | UACC-62 19.9 µM | OVCAR-5 23.7 µM | HCC 2998 17.2 µM | IGROV-1 36.3 µM | SNB-19 36.9 µM | A549 32.7 µM | SF-539 28 µM | MOLT-4 16.7 µM | A498 37.8 µM

CC(C)(C)OC(=O)NC(CCCCNC(=O)OCc1ccccc1)C(=O)NCCNc1ccc(NCCNC(=O)C(CCCCNC(=O)OCc2ccccc2)NC(=O)OC(C)(C)C)c2c1C(=O)c1ccccc1C2=O (stereo not given)
inactive: M14 > 100 µM | TK-10 > 100 µM | DU-145 > 100 µM | MDA-MB-435 31.5 µM | U-251 3.18 µM | HOP-92 > 42.3 µM | NCI/ADR-RES 19.8 µM | T47D 5.11 µM | UACC-62 23 µM | OVCAR-5 > 100 µM | HCC 2998 8.67 µM | IGROV-1 29.3 µM | SNB-19 10.5 µM | A549 > 100 µM | SF-539 17.6 µM | MOLT-4 > 100 µM | A498 > 100 µM | HCT-116 24.5 µM

Clc1ccccc1C(c1ccccc1)(c1ccccc1)n1ccnc1 [CLOTRIMAZOLE]
inactive: M14 13.5 µM | TK-10 15.3 µM | DU-145 17.3 µM | MDA-MB-435 12.5 µM | U-251 14.8 µM | HOP-92 11.8 µM | NCI/ADR-RES 9.25 µM | T47D 7.85 µM | UACC-62 13.3 µM | OVCAR-5 11.8 µM | HCC 2998 16.5 µM | IGROV-1 7.57 µM | SNB-19 14.4 µM | A549 8.2 µM | MOLT-4 8.95 µM | A498 20.6 µM | HCT-116 7.82 µM
